The text below walks through data of ChEMBL document CHEMBL3259679, “Synthesis of novel tricyclic chromenone-based inhibitors of IRE-1 RNase activity” (J Med Chem, 2014).

One may read the IC50 as the point on the concentration scale where inhibition reaches its midpoint.

Data set [1] deals with JeKo-1. As to the kind of experiment: cells. The settings on record: Homo sapiens, JeKo-1, 24 h.
Data set [2] deals with B-cell. Briefly: Inhibition of XBP-1s expression in LPS-stimulated wild-type mouse B lymphocytes at 20 uM after 24 hrs by Western blotting analysis.
Data set [3] addresses Serine/threonine-protein kinase/endoribonuclease IRE1 (Homo sapiens, UniProt O75460). As to the kind of experiment: Inhibition of human recombinant puritin-His-tagged IRE-1 RNase expressed in SF21 cells using XBP-1 RNA stem loop as substrate incubated for 30 mins prior to substrate addition measured after 2 hrs by FRET-suppression assay.
Data set [4] has as its system B-cell. The settings on record: Mus musculus, 20 uM.
The test system of data set [5] is Mino. The settings on record: Homo sapiens, 20 uM.
Data set [6] deals with Mino. Briefly: Induction of apoptosis in human Mino cells assessed as PARP cleavage at 50 uM after 72 hrs by immunoblotting analysis. It is filed as functional, cell-based.
Data set [7] is described as follows: Growth inhibition of human Mino cells after 48 hrs by XTT assay. It is filed as functional.
Data set [8] in a line: Upregulation of IRE-1 expression in human Mino cells at 20 uM after 24 hrs by immunoblotting analysis. It is filed as functional, cell-based. (A western blot detects proteins with antibodies after separation by electrophoresis.)
For data set [9], the system named is JeKo-1. Briefly: Induction of apoptosis in human Jeko cells assessed as PARP cleavage at 50 uM after 72 hrs by immunoblotting analysis. In kind it is functional, cell-based.
Data set [10] can be described thus: Upregulation of IRE-1 expression in human Jeko cells at 20 uM after 24 hrs by immunoblotting analysis. In kind it is functional, cell-based. Conditions: JeKo-1.
The subject of data set [11] is JeKo-1. Conditions: Homo sapiens, 20 uM.
Data set [12] is described as follows: Growth inhibition of human Jeko cells after 48 hrs by XTT assay. In kind it is functional, JeKo-1.
Data set [13] in a line: Drug degradation after 12 hrs by LC-MS analysis. In kind it is physicochemical.

Calls of active or inactive are those of the source. No cut-off for these calls is given here. A value given as a limit tells only on which side of the number the result lay.

Serine/threonine-protein kinase/endoribonuclease IRE1, sequence (O75460 whole entry): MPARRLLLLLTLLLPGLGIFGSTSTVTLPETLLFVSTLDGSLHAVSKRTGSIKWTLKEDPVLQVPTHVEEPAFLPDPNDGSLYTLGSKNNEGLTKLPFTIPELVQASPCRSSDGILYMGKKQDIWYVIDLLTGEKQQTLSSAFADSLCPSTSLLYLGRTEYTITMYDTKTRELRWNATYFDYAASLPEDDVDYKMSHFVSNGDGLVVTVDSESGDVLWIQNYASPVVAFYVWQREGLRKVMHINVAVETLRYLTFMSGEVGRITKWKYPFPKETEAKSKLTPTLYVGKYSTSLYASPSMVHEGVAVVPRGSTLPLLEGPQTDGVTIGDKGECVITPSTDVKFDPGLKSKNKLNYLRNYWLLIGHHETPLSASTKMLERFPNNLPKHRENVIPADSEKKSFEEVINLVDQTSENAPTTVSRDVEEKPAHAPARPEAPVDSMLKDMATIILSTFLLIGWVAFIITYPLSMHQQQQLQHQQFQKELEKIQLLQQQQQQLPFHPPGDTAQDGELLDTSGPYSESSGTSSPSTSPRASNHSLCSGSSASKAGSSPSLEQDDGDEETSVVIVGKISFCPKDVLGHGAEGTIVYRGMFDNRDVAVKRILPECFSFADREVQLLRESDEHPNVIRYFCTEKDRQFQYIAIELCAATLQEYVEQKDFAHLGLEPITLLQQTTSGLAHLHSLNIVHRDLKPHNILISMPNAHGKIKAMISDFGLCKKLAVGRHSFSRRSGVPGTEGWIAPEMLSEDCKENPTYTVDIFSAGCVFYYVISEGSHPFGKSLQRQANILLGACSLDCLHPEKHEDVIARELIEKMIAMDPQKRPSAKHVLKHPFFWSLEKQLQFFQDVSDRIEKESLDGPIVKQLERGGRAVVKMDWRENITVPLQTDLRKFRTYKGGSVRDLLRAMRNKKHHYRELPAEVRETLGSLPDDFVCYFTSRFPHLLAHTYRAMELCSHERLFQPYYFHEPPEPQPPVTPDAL

`Cc1cc(=O)oc2c(C=O)c(O)ccc12`: the IC50 in the data set with JeKo-1 [1] came to 1570 nM. Besides, the inhibition result in the data set with B-cell [2] is “Active”.
As to `C=CCOC(=O)N1CCc2c(c(=O)oc3c(C=O)c(OCc4ccccc4)ccc23)C1`, in [3], the IC50 was > 20000 nM.
Regarding `C=CCOC(=O)N1CCc2c(c(=O)oc3c(C(=O)O)c(O)ccc23)C1`, in the data set with B-cell [4], the inhibition result was “inactive”.
Same read-out and setting: the value for `C=CCOC(=O)N1CCc2c(c(=O)oc3c(/C=C/C(=O)OCC)c(O)ccc23)C1` was “inactive”.
For `CN1CCc2c(c(=O)oc3c(C=O)c(O)ccc23)C1`, the inhibition entry in the data set on Mino [5], in the data set on B-cell [4] and with JeKo-1 [11] was “Active” throughout. Besides, the result (in the data set on Mino [6]; in data set [8]; in the data set with JeKo-1 [9]; in data set [10]) was Active. Also, the GI in data set [7] was 55 µM; in data set [12] it was 66 µM.
On to `C=CCOC(=O)N1CCc2c(c(=O)oc3c(C4OCCCO4)c(O)ccc23)C1`, for which, in the data set with B-cell [2], the inhibition entry is “Active”. In addition, the Stability entry in [13] is listed as “Stable”.
In the case of `CC(=O)N1CCc2c(c(=O)oc3c(C=O)c(O)ccc23)C1`, the inhibition entry in the data set on Mino [5], in the data set on B-cell [4] and in the data set with JeKo-1 [11] was “Active” in each case. The result in data set [8] and in data set [10] was Active.
In the case of `C=CCOC(=O)N1CCc2c(c(=O)oc3c(C(=O)OC)c(O)ccc23)C1`, the inhibition result in the data set with B-cell [4] was “inactive”.
Turning to `C=CCOC(=O)N1CCc2c(c(=O)oc3c(C=O)c(O)ccc23)C1`, the inhibition entry in the data set with Mino [5], in the data set with JeKo-1 [11] and in the data set with B-cell [2] was “Active” in each case. Besides, the outcome in data set [8] and in data set [10] was Active.
